Reference: ChEMBL document CHEMBL1147396, “A new antimalarial quassinoid from Simaba guianensis” (J Nat Prod, 1993)
Values after ≈ are worked out from the molar mass of the structure shown.

Assays:
Plasmodium falciparum [1] = assay: Antimalarial activity against mefloquine-resistant Plasmodium falciparum D6 (Sierra Leone) after 24 to 60 hrs by [G-H3]hypoxanthine uptake; format: functional, organism-based
Plasmodium falciparum [2] = assay: Antimalarial activity against chloroquine-resistant Plasmodium falciparum Indochina W2 after 24 to 60 hrs by [G-H3]hypoxanthine uptake; format: functional, organism-based

Compound	IC50 (Plasmodium falciparum [1]) [ng/mL]	IC50 (Plasmodium falciparum [2]) [ng/mL]
C[C@@H]1CC[C@H]2[C@@H](C)C(=O)O[C@@H]3O[C@@]4(C)CC[C@@H]1[C@]32OO4 [ARTEMISININ]	2.1 (≈ 7.44 nM)	–
CC(C)=CC(=O)O[C@H]1C(=O)O[C@@H]2C[C@H]3C(C)=CC(=O)[C@@H](O)[C@]3(C)[C@H]3[C@@H](O)[C@H](O)[C@]4(C)OC[C@]32[C@@H]14 [GUTOLACTONE]	4.1 (≈ 8.6 nM)	4 (≈ 8.39 nM)
OC(c1cc(C(F)(F)F)nc2c(C(F)(F)F)cccc12)C1CCCCN1 (configuration not stated) [MEFLOQUINE]	–	1.5 (≈ 3.96 nM)
C=C[C@H]1CN2CC[C@H]1C[C@H]2[C@H](O)c1ccnc2ccc(OC)cc12 [QUININE]	–	68.6 (≈ 211 nM)
CC[C@@H](C)C(=O)O[C@H]1C(=O)O[C@@H]2C[C@H]3C(C)=CC(=O)[C@@H](O)[C@]3(C)[C@H]3[C@@H](O)[C@H](O)[C@]4(C)OC[C@]32[C@@H]14 [SIMALIKALACTONE D]	1.5 (≈ 3.13 nM)	1.6 (≈ 3.34 nM)
